The record followed here is patent US7018990B2, “Combination of a factor Xa inhibitor and clopidogrel” (Bristol-Myers Squibb Company, priority 2002, dated 2006).

Data set [1] relates to rabbits. As to the kind of experiment: Electrically induced carotid artery thrombosis in anesthetized rabbits (clot inhibition, carotid blood flow). In kind it is in vivo. On the procedure:
Rabbits were anesthetized with ketamine (50 mg/kg i.m.) and xylazine (10 mg/kg i.m.) and then surgically prepared with arterial and venous catheters. An electromagnetic flow probe was placed on a segment of an isolated carotid artery to monitor blood flow. Thrombus formation was induced by electrical stimulation of the carotid artery for 3 min at 4 mA using an external stainless-steel bipolar electrode. Carotid blood flow was measured continuously over a 45-min period to monitor thrombus occlusion. Compound A was infused intravenously whereas clopidogrel was infused into the portal vein. Both agents were infused 1 hour prior to the electrical stimulation of the carotid artery and continuously during the 45-min period.
(§1) The same experimental protocol as described in Example 1 was used in this study. Aspirin was infused intravenously whereas clopidogrel was infused into the portal vein. Both agents were infused 1 hour prior to the electrical stimulation of the carotid artery and the cuticle transection, and continuously to the end of the experiment.
The same experimental protocol as described in Example 1 was used in this study. Aspirin and Compound A were infused intravenously.

The subject of data set [2] is rabbits. The data set is described as follows: Cuticle bleeding time in anesthetized rabbits. Conditions: clopidogrel 1 mg/kg/hr infused into the portal vein, compared to the vehicle-group. The method, then:
The bleeding time effects of Compound A, clopidogrel, and their combination were examined in anesthetized rabbits. Rabbits were anesthetized as described above and their hind paws were shaved. A standard cut was made at the apex of the cuticle with a razor blade. Blood was allowed to flow freely by keeping the bleeding site in contact with 37° C. warm lactated Ringer's solution. Bleeding time was defined as the time after transection when bleeding was ceased. It was measured by averaging the bleeding time of three nail cuticles in the control and treatment period. Percentage change in cuticle bleeding time is calculated by comparing the bleeding time taken in the treatment period to the control bleeding time. Compounds were infused as described above.
as §1

[3] abbreviates: Compound A 0.1 mg/kg/hr infused intravenously.
Where [4] appears, read: aspirin 0.3 mg/kg/hr infused intravenously.
[5] abbreviates: clopidogrel 1 mg/kg/hr infused into the portal vein.

With `CN(C)Cc1nccn1-c1ccc(NC(=O)c2cc(C(F)(F)F)nn2-c2ccc3onc(N)c3c2)c(F)c1.Cl` [Compound A, 1-(3′-aminobenzisoxazol-5′-yl)-3-trifluoromethyl-5-[[4-[(2′-dimethylaminomethyl)imidazol-1′-yl]-2fluorophenyl]aminocarbonyl]pyrazole-hydrochloric acid salt], in the data set on rabbits [1] (setting [3]), the carotid blood flow result is reported as “increase in carotid blood flow” and the “inhibition of clot formation” value is given as “moderate inhibition of clot formation”.
In the case of `CC(=O)Oc1ccccc1C(=O)O` [aspirin, acetylsalicyclic acid], in the data set with rabbits [1] (setting [4]), the carotid blood flow result is given as “not effective” and the “inhibition of clot formation” value is on record as “not effective in inhibiting the formation of clot”.
As for `COC(=O)[C@H](c1ccccc1Cl)N1CCc2sccc2C1` [clopidogrel, Clopidogrel], in the data set on rabbits [1] (setting [5]), the carotid blood flow result is “increase in carotid blood flow” and the “inhibition of clot formation” value is reported as “moderate inhibition of clot formation”. The bleeding time result with rabbits [2] is on record as “increased the bleeding time significantly”.
